Measured values taken from patent US8492559B2, “Substituted indole compounds” (Gruenenthal GmbH, priority 2009, dated 2013).

Target: T1, B1R receptor of the rat (rB1R) (Rattus norvegicus, UniProt P97583)
T1 construct: expressed in transfected cells; host or cells: CHO K1 cells
T1 sequence (P97583 1-337): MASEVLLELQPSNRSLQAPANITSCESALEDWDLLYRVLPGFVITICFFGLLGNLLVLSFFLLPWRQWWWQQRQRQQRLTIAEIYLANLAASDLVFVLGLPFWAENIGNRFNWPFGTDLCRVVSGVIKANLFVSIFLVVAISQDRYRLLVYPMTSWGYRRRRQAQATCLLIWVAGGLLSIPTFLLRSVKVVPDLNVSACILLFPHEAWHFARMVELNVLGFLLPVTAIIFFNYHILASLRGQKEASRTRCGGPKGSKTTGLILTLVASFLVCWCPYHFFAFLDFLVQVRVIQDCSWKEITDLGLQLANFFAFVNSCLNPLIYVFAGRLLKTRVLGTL
Assay: Functional investigation on the bradykinin 1 receptor (B1R), FLIPR Ca2+ assay, rB1R cells
Assay type: cell-based
Settings: CHO K1 cells with rat B1R, agonist Des-Arg9 bradykinin, % of maximum achievable inhibition; for B1R antagonism, rat [10 μM] % inhibition: 10 μM test substance; for inhibition at 10 µM: CHO-K1, 10 μM test substance, read-out: B1R antagonism, rat [10 μM] % inhibition
Description: The indication in % activation is based on the Ca^2+ signal after addition of Lys-Des-[…] bradykinin (0.5 nM) or Des-[…] bradykinin (100 nM). Antagonists lead to a suppression of the Ca^2+ influx following administration of the agonist. The % inhibition in comparison with the maximum achievable inhibition is indicated. […] According to this assay, the Ca^2+ inflow through the channel is quantified with the aid of a Ca^2+-sensitive dye (Fluo-4 type, Molecular Probes Europe BV, Leiden, Netherlands) in a fluorescent imaging plate reader (FLIPR, Molecular Devices, Sunnyvale, USA). […] For functional investigations these cells are plated-out onto black 96-well plates with a clear base (BD Biosciences, Heidelberg, Germany or Greiner, Frickenhausen, Germany) in a density of 20,000-35,000 cells/well. Overnight the cells are incubated at 37° C. and 5% CO2 in culture medium (hB1R cells: Ham's Nutrient Mixture F12, Gibco Invitrogen GmbH, Karlsruhe, Germany or DMEM, Sigma-Aldrich, Taufkirchen, Germany; rB1R cells: D-MEM/F12, Gibco Invitrogen, Karlsruhe, Germany) with 10 vol. % FBS (foetal bovine serum, Gibco Invitrogen GmbH, Karlsruhe, Germany or PAN Biotech GmbH, Aidenbach, Germany). On the following day the cells are loaded with 2.13 μM Fluo-4 (Molecular Probes Europe BV, Leiden, Netherlands) in HBSS buffer (Hank's buffered saline solution, Gibco Invitrogen GmbH, Karlsruhe, Germany) with 2.5 mM probenecid (Sigma-Aldrich, Taufkirchen, Germany) and 10 mM HEPES (Sigma-Aldrich, Taufkirchen, Germany) for 60 min at 37° C. […] Sigma-Aldrich, Taufkirchen, Germany), 5.6 mM glucose and 0.05% gelatine (Merck KGaA, Darmstadt, Germany) is added. After a further incubation of 20 minutes at room temperature, the plates are inserted into the FLIPR for Ca^2+ measurement. Alternatively they are washed with buffer A (15 mM HEPES, 80 mM NaCl, 5 mM KCl, 1.2 mM CaCl2, 0.7 mM MgSO4, 2 g/l glucose, 2.5 mM probenecid) and loaded with buffer A with added 2.5 μM Fluo-4 and 0.025% Pluronic F127 (Sigma-Aldrich, Taufkirchen, Germany). The cells are then washed twice with buffer A and incubated for 30 minutes with buffer A, which additionally contains 0.05% BSA and 0.05% gelatine, at room temperature and then used for Ca^2+ measurement in the FLIPR. The Ca^2+-dependent fluorescence is measured here before and after addition of substances (λex=488 nm, λem=540 nm). The quantification is performed by measuring the highest fluorescence intensity (FC, fluorescence counts) over time. The FLIPR protocol comprises two additions of substance. […] Lys-Des-[…] bradykinin>=50 nM; rB1R: […] Antagonists lead to a suppression of the Ca^2+ inflow. The % inhibition in comparison with the maximum achievable inhibition is calculated. The substances are added in varying concentrations in order to determine the IC50 value. Double or triple determinations (n=2 or n=3) are performed and these are repeated in at least one further independent experiment (N>=2).

Compound	inhibition at 10 µM [%]	other results
COc1cc(C)c(S(=O)(=O)Nc2cccc3ccn(CC(=O)N4CCC(Oc5ccncc5)CC4)c23)c(C)c1 [Compound G-03, 4-Methoxy-2,6-dimethyl-N-[1-[2-oxo-2-(4-pyridin-4-yloxy-piperidin-1-yl)-ethyl]-1H-indol-7-yl]-benzenesulfonic acid amide]		B1R antagonism, rat [10 μM] % inhibition (10 µM): 90%
COc1cc(C)c(S(=O)(=O)Nc2ccc3ccn(CC(=O)N4CCN(C5CCN(C)CC5)CC4)c3c2)c(C)c1 [G_CC-1, 4-Methoxy-2,6-dimethyl-N-[1-[2-[4-(1-methyl-piperidin-4-yl)-piperazin-1-yl]-2-oxo-ethyl]-1H-indol-6-yl]-benzenesulfonic acid amide]	62	
COc1cc(C)c(S(=O)(=O)Nc2ccc3ccn(CC(=O)N4CCN(c5ncccn5)CC4)c3c2)c(C)c1 [G_CC-3, 4-Methoxy-2,6-dimethyl-N-[1-[2-oxo-2-(4-pyrimidin-2-yl-piperazin-1-yl)-ethyl]-1H-indol-6-yl]-benzenesulfonic acid amide]	82	
COc1cc(C)c(S(=O)(=O)Nc2ccc3ccn(CC(=O)N4CCN(CC5CCN(C)CC5)CC4)c3c2)c(C)c1 [G_CC-4, 4-Methoxy-2,6-dimethyl-N-[1-[2-[4-[(1-methyl-piperdin-4-yl)-methyl]-piperazin-1-yl]-2-oxo-ethyl]-1H-indol-6-yl]-benzenesulfonic acid amide]		B1R antagonism, rat [10 μM] % inhibition: 99%
COc1cc(C)c(S(=O)(=O)Nc2cccc3ccn(CC(=O)N4CCN(c5ccc(F)cc5)CC4)c23)c(C)c1 [G_CC-5, N-[1-[2-[4-(4-fluorophenyl)-piperazin-1-yl]-2-oxo-ethyl]-1H-indol-7-yl]-4-methoxy-2,6-dimethyl-benzenesulfonic acid amide]	59	
COc1cc(C)c(S(=O)(=O)Nc2cccc3ccn(CC(=O)N4CCN(c5ncccn5)CC4)c23)c(C)c1 [G_CC-6, 4-Methoxy-2,6-dimethyl-N-[1-[2-oxo-2-(4-pyrimidin-2-yl-piperazin-1-yl)-ethyl]-1H-indol-7-yl]-benzenesulfonic acid amide]	73	
COc1cc(C)c(S(=O)(=O)Nc2cccc3ccn(CC(=O)N4CCN(CC5CCN(C)CC5)CC4)c23)c(C)c1 [G_CC-7, 4-Methoxy-2,6-dimethyl-N-[1-[2-[4-[(1-methyl-piperdin-4-yl)-methyl]-piperazin-1-yl]-2-oxo-ethyl]-1H-indol-7-yl]-benzenesulfonic acid amide]		B1R antagonism, rat [10 μM] % inhibition: 100%
COc1cc(C)c(S(=O)(=O)Nc2ccc3ccn(CC(=O)NCC4CCN(c5ccncc5)CC4)c3c2)c(C)c1 [G_CC-9, 2-[6-[[(4-Methoxy-2,6-dimethyl-phenyl)sulfonyl]amino]-1H-indol-1-yl]-N-[(1-pyridin-4-yl-piperidin-4-yl)-methyl]-acetamide]	65	
COc1cc(C)c(S(=O)(=O)Nc2ccc3ccn(CC(=O)N4CCC5(CCN(Cc6ccccc6)C5)C4)c3c2)c(C)c1 (centres unmarked) [G_CC-10, N-[1-[2-(3-Benzyl-3,7-diazaspiro[4.4]nonan-7-yl)-2-oxo-ethyl]-1H-indol-6-yl]-4-methoxy-2,6-dimethyl-benzenesulfonic acid amide]	69	
COc1cc(C)c(S(=O)(=O)Nc2ccc3ccn(CC(=O)N(C)CCCN4CCC(c5ccccc5)(N(C)C)CC4)c3c2)c(C)c1 [G_CC-11, N-[3-(4-Dimethylamino-4-phenyl-piperidin-1-yl)-propyl]-2-[6-[[(4-methoxy-2,6-dimethyl-phenyl)sulfonyl]amino]-1H-indol-1-yl]-N-methyl-acetamide]	87	
COc1cc(C)c(S(=O)(=O)Nc2cccc3ccn(CC(=O)N4CCC5(CC4)CCN(c4ccc(F)cc4)C5=O)c23)c(C)c1 [G_CC-12, N-[1-[2-[3-(4-Fluorophenyl)-4-oxo-3,8-diazaspiro[4.5]decan-8-yl]-2-oxo-ethyl]-1H-indol-7-yl]-4-methoxy-2,6-dimethyl-benzenesulfonic acid amide]	58	
COc1cc(C)c(S(=O)(=O)Nc2cccc3ccn(CC(=O)N4CCC5(CCN(Cc6ccccc6)C5)C4)c23)c(C)c1 (centres unmarked) [G_CC-13, N-[1-[2-(3-Benzyl-3,7-diazaspiro[4.4]nonan-7-yl)-2-oxo-ethyl]-1H-indol-7-yl]-4-methoxy-2,6-dimethyl-benzenesulfonic acid amide]	58	
COc1cc(C)c(S(=O)(=O)Nc2cccc3ccn(CC(=O)N(C)CCCN4CCC(c5ccccc5)(N(C)C)CC4)c23)c(C)c1 [G_CC-14, N-[3-(4-Dimethylamino-4-phenyl-piperidin-1-yl)-propyl]-2-[7-[[(4-methoxy-2,6-dimethyl-phenyl)sulfonyl]amino]-1H-indol-1-yl]-N-methyl-acetamide]	86	
Cc1cc(S(=O)(=O)Nc2ccc3ccn(CC(=O)N(C)CCCN4CCC(c5ccccc5)(N(C)C)CC4)c3c2)c(C)cc1Cl [G_CC-15, 2-[6-[[(4-Chloro-2,5-dimethyl-phenyl)sulfonyl]amino]-1H-indol-1-yl]-N-[3-(4-dimethylamino-4-phenyl-piperidin-1-yl)-propyl]-N-methyl-acetamide]	65	
CN(CCCN1CCC(c2ccccc2)(N(C)C)CC1)C(=O)Cn1ccc2cccc(NS(=O)(=O)c3cccc4ccccc34)c21 [G_CC-16, N-[3-(4-Dimethylamino-4-phenyl-piperidin-1-yl)-propyl]-N-methyl-2-[7-[(naphthalen-1-ylsulfonyl)amino]-1H-indol-1-yl]-acetamide]	67	
COc1cc(C)c(S(=O)(=O)Nc2cccc3ccn(CC(=O)NC4CCC(c5ccccc5)(N5CCC5)CC4)c23)c(C)c1 (centres unmarked) [G_CC-17, N-[4-(Azetidin-1-yl)-4-phenyl-cyclohexyl]-2-[7-[[(4-methoxy-2,6-dimethyl-phenyl)sulfonyl]amino]-1H-indol-1-yl]-acetamide]	52	
COc1cc(C)c(S(=O)(=O)Nc2cccc3ccn(CC(=O)N(C)CCCN4CCC(c5cccs5)(N(C)C)CC4)c23)c(C)c1 [G_CC-18, N-[3-(4-Dimethylamino-4-thiophen-2-yl-piperidin-1-yl)-propyl]-2-[7-[[(4-methoxy-2,6-dimethyl-phenyl)sulfonyl]amino]-1H-indol-1-yl]-N-methyl-acetamide]	87	
COc1cc(C)c(S(=O)(=O)Nc2cccc3ccn(CC(=O)NCCN4CCC(c5cccs5)(N(C)C)CC4)c23)c(C)c1 [G_CC-19, N-[2-(4-Dimethylamino-4-thiophen-2-yl-piperidin-1-yl)-ethyl]-2-[7-[[(4-methoxy-2,6-dimethyl-phenyl)sulfonyl]amino]-1H-indol-1-yl]-acetamide]	68	
COc1cc(C)c(S(=O)(=O)Nc2cccc3ccn(CC(=O)N4CCC(c5cccs5)(N(C)C)CC4)c23)c(C)c1 [G_CC-20, N-[1-[2-(4-Dimethylamino-4-thiophen-2-yl-piperidin-1-yl)-2-oxo-ethyl]-1H-indol-7-yl]-4-methoxy-2,6-dimethyl-benzenesulfonic acid amide]	86	
COc1cc(C)c(S(=O)(=O)Nc2cccc3ccn(CC(=O)NCCC4CCN(c5ccncc5)CC4)c23)c(C)c1 [G_CC-21, 2-[7-[[(4-Methoxy-2,6-dimethyl-phenyl)sulfonyl]amino]-1H-indol-1-yl]-N-[2-(1-pyridin-4-yl-piperidin-4-yl)-ethyl]-acetamide]	97	
